# Publication PMC3093405, “A Motif Unique to the Human Dead-Box Protein DDX3 Is Important for Nucleic Acid Binding, ATP Hydrolysis, RNA/DNA Unwinding and HIV-1 Replication” (PLoS ONE, 2011)
# Ends that are not written are not given here.
# Legend:
# DDX3wt = molecular target: T1, DDX3wt (Homo sapiens, UniProt O00571); assay: Inhibition of DDX3wt ATPase activity; type: biochemical; details: increasing amounts of inhibitor
# T1 construct: DDX3wt (aa 1–662), and the N-DDX3 (aa 1–427); N-terminal peptide of ~3 kDa comprising 6xHis (pTrcHisA) (N); seven additional amino acids KQGCFGG (C); made in house; host or cells: E. coli BL-21
# T1 sequence (O00571 whole entry, the tested form may be a part): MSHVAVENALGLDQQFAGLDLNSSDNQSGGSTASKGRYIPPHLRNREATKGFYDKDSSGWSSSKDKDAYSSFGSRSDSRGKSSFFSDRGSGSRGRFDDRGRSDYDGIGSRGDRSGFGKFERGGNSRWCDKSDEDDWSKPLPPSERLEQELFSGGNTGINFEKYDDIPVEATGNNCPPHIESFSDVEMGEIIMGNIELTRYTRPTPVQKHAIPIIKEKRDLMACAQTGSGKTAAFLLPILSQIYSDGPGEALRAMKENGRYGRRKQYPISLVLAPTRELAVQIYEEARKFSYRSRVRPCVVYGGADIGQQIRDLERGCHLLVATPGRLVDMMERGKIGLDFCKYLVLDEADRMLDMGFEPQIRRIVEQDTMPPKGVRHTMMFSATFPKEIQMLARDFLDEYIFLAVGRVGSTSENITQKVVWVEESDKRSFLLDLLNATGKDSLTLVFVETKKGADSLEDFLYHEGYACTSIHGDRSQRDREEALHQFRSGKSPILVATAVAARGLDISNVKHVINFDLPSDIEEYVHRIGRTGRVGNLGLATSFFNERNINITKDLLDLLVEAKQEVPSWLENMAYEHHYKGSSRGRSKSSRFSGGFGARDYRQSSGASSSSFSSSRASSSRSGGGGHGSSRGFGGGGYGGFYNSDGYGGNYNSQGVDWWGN
# Experimental: (§1) The ATPase activity was determined, as previously described, by directly monitoring [γ-^32P] ATP hydrolysis by thin-layer chromatography (TLC). ATP (3000 Ci/mmol) as tracer, plus 1 mM of cold ATP, unless otherwise stated, and nucleic acids as indicated. Samples were incubated for 5 minutes at 25°C and dotted onto TLC sheets of polyethylenimine cellulose. The products were separated by ascending chromatography with 0.5 M KH2PO4 (pH 3.4). The intensities of the radioactive bands corresponding to ATP and Pi were quantified by densitometric scanning with PhosphoImager. For the stimulation of the ATPase activity, the ssDNA oligonucleotide oligo(dT)20 or the ssRNA oligonucleotide oligo (rU)20 were used. Time-course experiments were performed under the conditions described above. Samples were taken at different time points and processed as described above.
# N-DDX3 = molecular target: T2, N-DDX3 (Homo sapiens, UniProt O00571); assay: Inhibition of N-DDX3 ATPase activity; type: biochemical; details: increasing amounts of inhibitor
# T2 construct: The N-DDX3 mutant (aa 1–427) was obtained using the forward primer; N-terminal peptide of ~3 kDa comprising 6xHis (pTrcHisA) (N); seven additional amino acids KQGCFGG (C); made in house; host or cells: E. coli BL-21
# T2 sequence (O00571 1-427): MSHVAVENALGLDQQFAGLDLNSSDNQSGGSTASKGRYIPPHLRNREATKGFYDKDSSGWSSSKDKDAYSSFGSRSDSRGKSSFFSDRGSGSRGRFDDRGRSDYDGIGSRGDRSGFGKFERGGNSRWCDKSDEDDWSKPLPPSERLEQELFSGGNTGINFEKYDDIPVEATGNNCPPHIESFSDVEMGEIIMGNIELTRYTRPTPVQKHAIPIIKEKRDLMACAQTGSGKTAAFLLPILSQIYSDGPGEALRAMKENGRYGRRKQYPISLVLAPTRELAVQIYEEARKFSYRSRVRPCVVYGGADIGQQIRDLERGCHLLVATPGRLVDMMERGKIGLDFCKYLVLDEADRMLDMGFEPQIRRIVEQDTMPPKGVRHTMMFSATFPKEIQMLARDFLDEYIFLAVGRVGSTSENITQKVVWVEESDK
# Experimental: as §1
# [1] = ATPase activity assay ([γ-32P]ATP hydrolysis, TLC), steady-state kinetics; type: biochemical
# Experimental: as §1
# ATPase reactions were performed as described, in the presence of increasing amounts of nucleic acids and variable ATP concentrations. […] The relative -fold increase in the ATPase velocities 1−(vDNA/v) as a function of the nucleic acid concentrations was fitted to the hyperbolic relationship: [drawing 2] (2) where vNA is the apparent velocity of the reaction in the presence of nucleic acid, v is the velocity in its absence, KD is the apparent affinity for the nucleic acid and [NA] is the concentration of the nucleic acid substrate. The symbol KD is used, instead of Km, solely to reflect the fact that the NA is not a reactant (i.e. it is not converted into products) but only a cofactor of the reaction, without implying any assumption on the nature of the microscopic rates contributing to the KD value itself.
# [2] = ATPase time-course (burst kinetics); type: biochemical
# Experimental: as §1
# Variation of the ATPase reaction as a function of time was fitted to the mixed-exponential equation: [drawing 3] (3) where [P] is the concentration of products (pmols) at any given time point, t is time, Aburst is the burst amplitude, k burst is the rate of the exponential phase, k ss is the rate of the steady-state linear phase.
# [3] = test system: 18/36mer ds RNA oligonucleotide; assay: RNA helicase assay; type: biochemical
# Text: (§2) The helicase activity of DDX3wt and mutant forms was monitored by measuring the conversion of a double stranded (ds) DNA or RNA (labelled at the 5′-end of one strand with a 6-FAM fluorescent group) into single stranded (ss) nucleic acid. For the RNA helicase assay, a 18/36mer ds RNA oligonucleotide with both 3′ and 5′-protruding ss ends was used. For the DNA helicase assay, three different dsDNA substrates were used, all of them composed of the same 18mer oligonucleotide 5′-FAM labelled and three different 38 mer oligonucleotides with the sequence complementary to the 18 mer at different positions. Annealing of the 18 mer to each of the 38 mer generated the different DNA substrates shown in Fig. 5 A. A final concentration of 20 nM RNA or DNA substrate was used in the experiments, unless otherwise stated. The amounts of the different DDX3 proteins are indicated in the respective Figures.
# (§3) Reactions were performed in 50 mM TrisHCl pH 7.5, 1 mM DTT, 0.2 mg/ml BSA, 5% glycerol and 1 mM ATP, 10 mM MgCl2 at 37°C degrees for 10′ and stopped by adding EDTA 50 mM pH 8. Products were separated on a native 7% PAGE […] at 5 W in TBE buffer with 0.1% SDS at 4°C for 2 hours for RNA substrates, 4 hours for DNA substrates. Substrates and products were quantified by laser scanning densitometry (Thyphoon-TRIO, GE Healthcare). For trap-assays, the enzyme and the RNA substrate were incubated on ice for 4 min, in the absence of ATP. Reactions were started by addition of ATP and a 50-fold molar excess (1 µM) of r(A)40 trap RNA oligonucleotide, followed by incubation at 37°C for the indicated times.
# Variation of the amount of unwound RNA substrate as a function of time was fitted to a simple exponential equation: [drawing 4] (4) where MAX is the amount of unwound substrate extrapolated at infinite time, kuw is the apparent rate of unwinding.
# [4] = test system: partially dsDNA substrates (18/38-mer); assay: DNA helicase assay; type: biochemical
# Text: as §2, §3
# HelaP4 cells = type: cell-based
# Experimental: We therefore analyzed this peptide further, with respect to functional interference with HIV-1 replication. After fusion to a protein transduction domain, different amounts of the DDX3-INS1 peptide or a control peptide were transduced into HelaP4 cells 24 hours after infection with HIV-1Lai. HIV-1 infection was quantified 48–72 hours after infection by titering released HIV-1 in culture supernatants on Tzm-bl cells based on measuring the luciferase activity in the cell lysates. […] The DDX3-INS1 peptide was not toxic for the cells in the concentration range used (data not shown). Thus, binding of the peptide ligand to the DDX3 insertion, interferes with HIV-1 replication further providing evidence of an important functional role of the DDX3 insertion not only for enzymatic functions, but also for HIV-1 replication.
# [5] = relative to absence of nucleic acid
molecule,measurement,setting,value
O=C(CN1C(=O)/C(=C/c2cccc(Br)c2)SC1=S)Nc1ccccc1O [FE15],Inhibition of ATP hydrolysis,DDX3wt,inhibited
same,Inhibition of ATP hydrolysis,N-DDX3,inhibited
"DDX3wt: recombinant full length human DDX3 (aa 1–662), N-terminal his-tagged, expressed in E. coli",k cat,"[1]; +DNA, oligo(dT)20",0.0633 ± 0.0033 s⁻¹
same,k cat,"[1]; +RNA, oligo(rU)20",0.0533 ± 0.0017 s⁻¹
same,Intrinsic ability to hydrolyze ATP,[1]; absence of nucleic acid,detectable ATPase activity
same,k cat,[1]; absence of nucleic acids,0.0267 ± 0.0033 s⁻¹
same,Increase of catalytic efficiency (kcat/Km) by DNA,[1]; [5],3.2 fold
same,Increase of catalytic efficiency (kcat/Km) by RNA,[1]; [5],2.8 fold
same,Aburst,"[2]; +DNA, oligo(dT)20",0.9 ± 0.1 µM
same,k burst,"[2]; +DNA, oligo(dT)20",9.5 ± 0.8 min⁻¹
same,k ss,"[2]; +DNA, oligo(dT)20",0.4 ± 0.03 min⁻¹
same,Aburst,"[2]; +RNA, oligo(rU)20",0.75 ± 0.1 µM
same,k burst,"[2]; +RNA, oligo(rU)20",7 ± 0.8 min⁻¹
same,k ss,"[2]; +RNA, oligo(rU)20",0.4 ± 0.09 min⁻¹
same,Aburst,[2]; absence of nucleic acids,0.25 ± 0.05 µM
same,k burst,[2]; absence of nucleic acids,4.1 ± 0.7 min⁻¹
same,k ss,[2]; absence of nucleic acids,0.3 ± 0.08 min⁻¹
same,Reduction of RNA unwinding rate by addition of the trap,[3],about 2 fold
same,k uw (apparent rate of RNA unwinding),"[3]; +trap, 50-fold molar excess r(A)40 ssRNA, single-turnover",0.05 ± 0.01 min⁻¹
same,k uw (apparent rate of RNA unwinding),[3]; without trap,0.11 ± 0.02 min⁻¹
same,DNA unwinding,"[4]; DNA duplex with a single 5′-protruding end, 18/[5′]-38 mer",able to unwind
same,DNA unwinding,"[4]; DNA duplex with both 5′- and 3′-protruding ssDNA ends, 18/[5′-3′]-38 mer",able to unwind
same,DNA unwinding,"[4]; substrate with a 3′-ss DNA region, 18/[3′]-38 mer",not
SDVPTQVGGRRRRRRRRR [DDX3-INS1],Toxicity for the cells,HelaP4 cells,not toxic
